Here are results for two compounds from patent US20140213513A1 (Sanofi, priority 2012, published 2014).

In general, EC50 refers to the concentration needed to bring the measured effect to its halfway point. Read a low EC50 as higher potency in that assay.

Common to all, as to assay type: cell-based
Details in all cases: Table 7; cAMP formation
In general terms: Changes in cAMP serve as a functional read-out for many G protein-coupled receptors.

In assay [1] the target is T1, human glucagon receptor (hGLUC R) (Homo sapiens, UniProt P47871).
T1 construct: expressed in transfected cells
T1 sequence (P47871 26-477): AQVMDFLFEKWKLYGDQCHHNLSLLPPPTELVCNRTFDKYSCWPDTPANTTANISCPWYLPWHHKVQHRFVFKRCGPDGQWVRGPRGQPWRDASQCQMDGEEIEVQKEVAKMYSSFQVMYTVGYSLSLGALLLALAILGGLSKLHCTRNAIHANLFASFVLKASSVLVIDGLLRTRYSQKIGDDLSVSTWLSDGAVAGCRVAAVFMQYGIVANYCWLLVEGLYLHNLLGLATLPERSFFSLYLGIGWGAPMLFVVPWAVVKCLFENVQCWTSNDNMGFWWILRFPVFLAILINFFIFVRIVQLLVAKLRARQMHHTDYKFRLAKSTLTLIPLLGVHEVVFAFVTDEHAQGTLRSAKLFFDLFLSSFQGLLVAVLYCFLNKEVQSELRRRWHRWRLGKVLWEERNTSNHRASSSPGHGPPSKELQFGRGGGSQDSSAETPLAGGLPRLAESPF
The assay is described as follows: cAMP response of HEK-293 cells stably expressing human glucagon receptor (HTRF). The essentials: (§1)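 Cells grown overnight in DMEM/10% FBS, detached with accutase, resuspended in HBSS with 20 mM HEPES, 0.1% BSA and 2 mM IBMX at 400000 cells/ml. Test compound added and incubated 30 minutes at room temperature; cellular cAMP then measured by HTRF.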
In general terms: In TR-FRET formats the signal depends on donor and acceptor labels being close together.

The target in assay [2] is T2, human GIP receptor (hGIP R) (Homo sapiens, UniProt P48546).
T2 construct: expressed in transfected cells
T2 sequence (P48546 22-466): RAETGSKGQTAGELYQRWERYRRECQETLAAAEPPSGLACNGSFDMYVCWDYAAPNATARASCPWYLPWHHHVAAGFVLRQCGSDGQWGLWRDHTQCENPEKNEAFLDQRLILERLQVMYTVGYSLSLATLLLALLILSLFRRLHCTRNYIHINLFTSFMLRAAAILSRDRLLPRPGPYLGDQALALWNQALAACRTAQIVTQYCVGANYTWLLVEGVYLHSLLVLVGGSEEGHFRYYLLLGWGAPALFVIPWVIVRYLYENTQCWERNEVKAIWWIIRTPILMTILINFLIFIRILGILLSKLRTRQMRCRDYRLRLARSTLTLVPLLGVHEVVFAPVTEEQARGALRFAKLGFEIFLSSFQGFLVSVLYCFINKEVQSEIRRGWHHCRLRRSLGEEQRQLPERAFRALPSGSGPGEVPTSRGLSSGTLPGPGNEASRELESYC
The experiment in a line: cAMP response of HEK-293 cells stably expressing human GIP receptor (HTRF). The essentials: as §1

The target of assay [3] is T3, human GLP-1 receptor (hGLP-1 R) (Homo sapiens, UniProt P43220).
T3 construct: expressed in transfected cells
T3 sequence (P43220 24-463): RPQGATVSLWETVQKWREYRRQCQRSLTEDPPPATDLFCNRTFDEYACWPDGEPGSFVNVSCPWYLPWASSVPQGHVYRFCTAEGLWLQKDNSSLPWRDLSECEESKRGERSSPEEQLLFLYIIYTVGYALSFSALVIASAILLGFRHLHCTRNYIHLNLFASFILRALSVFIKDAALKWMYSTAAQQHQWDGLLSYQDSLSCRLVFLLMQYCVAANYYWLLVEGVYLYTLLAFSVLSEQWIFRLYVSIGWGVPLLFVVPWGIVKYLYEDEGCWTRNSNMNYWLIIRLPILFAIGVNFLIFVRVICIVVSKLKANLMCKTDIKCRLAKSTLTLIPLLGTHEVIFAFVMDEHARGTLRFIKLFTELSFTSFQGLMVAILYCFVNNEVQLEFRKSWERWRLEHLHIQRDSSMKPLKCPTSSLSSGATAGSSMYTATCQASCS
The experiment in a line: cAMP response of HEK-293 cells stably expressing human GLP-1 receptor (HTRF). The method in brief:
as §1

*1 amine or outer side, *2 acyl side, *3 side chain or, on linkers, in order; H or OH if unused. Where a SMILES comes first, the peptide text is derived from it. Side-chain parts run from the residue outwards. [ ]: non-standard residue; d: D form. The star is where a group is joined. γGlu = O=C(O)[C@H](CCC(=O)[*:2])N[*:1]; Palmitoyl = CCCCCCCCCCCCCCCC(=O)*; Aib = CC(C)(N)C(=O)O

With `CCCCCCCCCCCCCCCC(=O)N[C@@H](CCC(=O)NCCCC[C@H](NC(=O)[C@H](CCC(N)=O)NC(=O)[C@H](CCCCN)NC(=O)[C@H](CO)NC(=O)[C@H](CC(C)C)NC(=O)[C@H](CC(=O)O)NC(=O)[C@H](CO)NC(=O)[C@@H](NC(=O)[C@H](Cc1ccccc1)NC(=O)[C@@H](NC(=O)CNC(=O)[C@H](CCC(=O)O)NC(=O)C(C)(C)NC(=O)[C@@H](N)Cc1ccc(O)cc1)[C@@H](C)O)[C@@H](C)O)C(=O)N[C@@H](CC(=O)O)C(=O)N[C@@H](CCCCN)C(=O)N[C@@H](CCCNC(=N)N)C(=O)N[C@@H](C)C(=O)N[C@@H](C)C(=O)N[C@@H](CCC(N)=O)C(=O)N[C@@H](CC(=O)O)C(=O)N[C@@H](Cc1ccccc1)C(=O)N[C@H](C(=O)N[C@@H](CCC(=O)O)C(=O)N[C@@H](Cc1c[nH]c2ccccc12)C(=O)N[C@@H](CC(C)C)C(=O)N[C@@H](CCCCN)C(=O)N[C@@H](CC(N)=O)C(=O)NCC(=O)NCC(=O)N1CCC[C@H]1C(=O)N[C@@H](CO)C(=O)N[C@@H](CO)C(=O)NCC(=O)N[C@@H](C)C(=O)N1CCC[C@H]1C(=O)N1CCC[C@H]1C(=O)N1CCC[C@H]1C(=O)N[C@@H](CO)C(N)=O)[C@@H](C)CC)C(=O)O` [SEQ ID NO: 30, Y-Aib-E-G-T-F-T-S-D-L-S-K-Q-K(yE-x53)-DKRAAQDFIEWLKNGGPSSGAPPPS-NH2] (H-Y[Aib]EGTFTSDLSKQK([γGlu-Palmitoyl])DKRAAQDFIEWLKNGGPSSGAPPPS-NH2), the concentration for a half-maximal effect (EC50) in assay [1] came to 1.45 nM; in assay [2], 0.0163 nM; in assay [3] it was 0.005 nM.
For `CCCCCCCCCCCCCCCC(=O)N[C@@H](CCC(=O)NCCCC[C@H](NC(=O)[C@H](CCC(N)=O)NC(=O)[C@@H](NC(=O)[C@H](CO)NC(=O)[C@H](CC(C)C)NC(=O)[C@H](CC(=O)O)NC(=O)[C@H](CO)NC(=O)[C@@H](NC(=O)[C@H](Cc1ccccc1)NC(=O)[C@@H](NC(=O)CNC(=O)[C@H](CCC(N)=O)NC(=O)C(C)(C)NC(=O)[C@@H](N)Cc1ccc(O)cc1)[C@@H](C)O)[C@@H](C)O)[C@@H](C)CC)C(=O)N[C@@H](CCC(=O)O)C(=O)N[C@@H](CCCCN)C(=O)N[C@@H](CCCNC(=N)N)C(=O)NC(C)(C)C(=O)N[C@@H](C)C(=O)NC(C)(C)C(=O)N[C@@H](CCC(=O)O)C(=O)N[C@@H](Cc1ccccc1)C(=O)N[C@H](C(=O)N[C@@H](CCC(=O)O)C(=O)N[C@@H](Cc1c[nH]c2ccccc12)C(=O)N[C@@H](CC(C)C)C(=O)N[C@@H](CCCCN)C(=O)N[C@@H](CC(N)=O)C(=O)N[C@H](C(=O)NCC(=O)N1CCC[C@H]1C(=O)N[C@@H](CO)C(=O)N[C@@H](CO)C(=O)NCC(=O)N[C@@H](C)C(=O)N1CCC[C@H]1C(=O)N1CCC[C@H]1C(=O)N1CCC[C@H]1C(=O)N[C@@H](CO)C(N)=O)[C@@H](C)O)[C@@H](C)CC)C(=O)O` [SEQ ID NO: 11, Y-Aib-Q-G-T-F-T-S-D-L-S-I-Q-K(yE-x53)-E-K-R-Aib-A-Aib-E-F-I-E-W-L-K-N-T-G-P-S-S-G-A-P-P-P-S-NH2] (H-Y[Aib]QGTFTSDLSIQK([γGlu-Palmitoyl])EKR[Aib]A[Aib]EFIEWLKNTGPSSGAPPPS-NH2), the concentration for a half-maximal effect (EC50) in assay [1] came to 0.0669 nM; in assay [2], 0.0144 nM; in assay [3] it was 0.0038 nM.
